# Results reported in patent publication US10934439B2, “Additives for coating compositions and related methods” (Massachusetts Institute of Technology, priority 2017, dated 2021).
# What was measured:
# [1] = Electrochemical impedance spectroscopy (EIS) of galvanized steel in 3.5% NaCl with additives; conditions: for η, inhibitor efficiency from EIS: 3.5% NaCl, 25° C, pH 5.6, additive 10 mg/mL
# Description: The electrochemical open-to-air cell (PTC1™ Paint Test Cell, Gamry Instruments, Warminster, Pa.) was utilized for the potentiodynamic polarization (Tafel tests) and electrochemical impedance spectroscopy experiments. […] Tafel tests (ASTM GS) were conducted using a Parstat PMC-2000 multichannel potentiostat equipped with Versa Studio 2.50.3 software (Princeton Applied Research, Oak Ridge, Tenn.). Tafel tests were modeled with a ZSIMPWIN™ software for complex nonlinear least square analyses fitting the circuit models of the electrode interface to the Nyquist amplitude of 10 mV at the open circuit potential in the frequency range of 100 kHz to 0.2 Hz. […] In a series of measurements with the corrosion inhibiting additives, a range of the additive concentrations was studied and the scan range was set from 150 mV below the open circuit voltage (OCV) to 200 mV more positive than the OCV, with three measurements for each condition. The range in these measurements was limited in order to minimize the cathodic polarization causing local pH changes.
# EIS (FIGS. 17A and 17B) was applied to further reveal the effects of the corrosion inhibitors on the electrolyte-galvanized steel electrode interface and to complement the potentiodynamic polarization measurements. The qualitative information was obtained using fit analysis embedded into the software used to model the spectra, employing electrical equivalent circuits (EECs).
# Elements of the EECs are described in the legend to FIGS. 17A and 17B. The corrosion resistance of the galvanized steel surface in the presence of the corrosion inhibitor represents the RCT+Rp sum. In the control measurement without the additive, the spectrum with one time constant EEC was used, wherein the electrode resistance is represented by RCT.
# EIS measurements enabled estimation of the corrosion inhibition efficiency: […]
# [2] = Potentiodynamic polarization (Tafel tests) of galvanized steel in 3.5% NaCl with additives; conditions: for Corrosion rate / Icorr (corrosion current density) / IE, inhibitor efficiency from Tafel: 25° C; for formation of white rust on the steel working electrode: millimolar or higher concentrations in 3.5% NaCl; for corrosion inhibitor efficiency compared with other additives: pH 5.3, equivalent concentrations
# From the text: The electrochemical open-to-air cell (PTC1™ Paint Test Cell, Gamry Instruments, Warminster, Pa.) was utilized for the potentiodynamic polarization (Tafel tests) and electrochemical impedance spectroscopy experiments. The electrochemical cell was composed of working electrode made of galvanized steel (zinc-galvanized sheets of type B carbon steel, ASTM A653, total thickness 0.305 mm, working area 2.2 cm^2 or 15.2 cm^2, McMaster Carr Supply Co., Robbinsvill, N.J.), reference Ag/AgCl electrode, and Pt wire auxiliary electrode (BASK) Corp., West Lafayette, Ind.). Prior to the immersion in the electrolyte (3.5% NaCl, pH adjusted to 5.25-5.3, 40 mL), the working electrodes were washed by acetone, ethanol, dried by nitrogen flow and polished with P1200 grit.^24 The working electrode was immersed into electrolyte containing the tested compound at a given concentration with desired pH at 25° C. for 60 min prior to each measurement. […] The carbon steel used herein was coated with the average minimum coating thickness per ASTM A653 being 2.0 mils (0.0508 mm) per surface. Tafel tests (ASTM GS) were conducted using a Parstat PMC-2000 multichannel potentiostat equipped with Versa Studio 2.50.3 software (Princeton Applied Research, Oak Ridge, Tenn.). Tafel tests were modeled with a ZSIMPWIN™ software for complex nonlinear least square analyses fitting the circuit models of the electrode interface to the Nyquist amplitude of 10 mV at the open circuit potential in the frequency range of 100 kHz to 0.2 Hz. Parameters for Tafel tests were as follows: initial potential, −1.25 V (vs reference); final potential, −0.45 V; scan properties: step height, 0.5 mV, step time, 2 s. In a series of measurements with the corrosion inhibiting additives, a range of the additive concentrations was studied and the scan range was set from 150 mV below the open circuit voltage (OCV) to 200 mV more positive than the OCV, with three measurements for each condition. The range in these measurements was limited in order to minimize the cathodic polarization causing local pH changes.
# In the vicinity of Ecorr both currents are present in the specimen, but experimentally it is possible to measure only the net current. The net current has a single measurable polarity, either positive or negative. At Ecorr the net measured current is exactly zero. The corrosion current (icorr) is expressed as (for definitions, see FIG. 13):
# [formula] where E.W. is the equivalent weight of the corroding species, g. In this case, the corroding species is Zn, so E.W.=32.7 g. Icorr, is the corrosion current density in μA/cm^2, and d is the density of the corroding species. Density of zinc is 7.140 g/cm^3.
# From the icorr values, inhibitor efficiencies (IE, %) were calculated as (equation (1)): […]
# [3] = Hygroscopicity on standing in an open jar at 80% relative humidity; format: physicochemical; conditions: converted to pasty solid
# Description: The crystals were hygroscopic and converted to caramel-like, pasty solid on standing in an open jar at 80% relative humidity. […] Thermogravimetric analysis (TGA) and simultaneous differential scanning calorimetry (DSC) were conducted using a Q600 TGA/DSC instrument (TA Instruments, Inc.). Samples were subjected to heating scans (10 or 20° C./min) in a temperature ramp mode under nitrogen atmosphere.
# [4] = Solubility / dissolution testing
# [5] = 44.7 mM, electrolyte containing 0.0165 wt % NaCl (pH not stated); cited from earlier work
# [6] = cited from earlier work
# [7] = cited from earlier work; remark: listed apart in the source
# [8] = 3.5% NaCl, pH 5.3, [Mg2+] 49.8, [TDPA] 49.8 meq/L
# [9] = 3.5% NaCl, pH 5.6, additive 10 mg/mL
# [10] = 3.5% NaCl, pH 5.3, [Mg2+] 9.93, [Ac−] 9.93, [TDPA] 15.9 meq/L
# [11] = 3.5% NaCl, pH 5.3, [Mg2+] 41.9, [Ac−] 41.9, [TDPA] 67.1 meq/L
# [12] = 3.5% NaCl, pH 5.3, [Mg2+] 62.9, [Ac−] 62.9, [TDPA] 101 meq/L
# [13] = 3.5% NaCl, pH 5.3, [Mg2+] 167, [TDPA] 33.5 meq/L
# [14] = 3.5% NaCl, pH 5.3, [Mg2+] 71.8, [Ac−] 144, [TDPA] 0 meq/L
# [15] = 3.5% NaCl, pH 2.1, [TDPA] 94.8 meq/L
# [16] = 3.5% NaCl, pH 5.3, [TDPA] 47.4 meq/L
# [17] = 3.5% NaCl, pH 5.3, [TDPA] 94.8 meq/L
compound,measurement,setting,value
magnesium thiodipropionate [MgTDPA1:1],increase in total resistance Ri=RCT+Rp versus Ro=RCT without inhibitor,"[1]; 10 mg/mL in 3.5% NaCl, pH 5.6, 25° C",283 fold
same,"η, inhibitor efficiency from EIS",[1],99%
same,effect on Icorr in Tafel plots (FIG. 16),"[2]; 10 mg/mL in 3.5% NaCl, pH 5.6, versus no additive and other additives",reduced the Icorr values the most
same,"breakdown potentials (instability of the oxide film, pitting corrosion)",[2]; 1-2 mM concentrations and above in the 3.5% NaCl electrolyte,increased
same,Corrosion rate,[2]; [8],21.1 mpy
same,Icorr (corrosion current density),[2]; [8],35.5 μA/cm^2
same,Corrosion rate,[2]; [9],1.07 mpy
same,"IE, inhibitor efficiency from Tafel",[2]; [9],93%
same,Icorr (corrosion current density),[2]; [9],1.79 μA/cm^2
same,corrosion inhibitor effectiveness compared with controls (data in Table 1),"[2]; galvanized steel, 3.5% NaCl",more effective corrosion inhibitor for galvanized steel than either TDPA or MgAc2
same,formation of white rust on the steel working electrode,[2],visibly reduced the formation of white rust
magnesium acetate thiodipropionate [MgAcTDPA],"η, inhibitor efficiency from EIS",[1],80%
same,hygroscopicity of the crystals,[3],hygroscopic
same,concentration on dissolution in warm ethanol,[4]; warm ethanol,at least 10 wt %
same,Corrosion rate,[2]; [10],29.4 mpy
same,Icorr (corrosion current density),[2]; [10],49.3 μA/cm^2
same,Corrosion rate,[2]; [11],7.9 mpy
same,Icorr (corrosion current density),[2]; [11],13.3 μA/cm^2
same,Corrosion rate,[2]; [12],1.85 mpy
same,Icorr (corrosion current density),[2]; [12],3.12 μA/cm^2
same,Corrosion rate,[2]; [9],2.41 mpy
same,"IE, inhibitor efficiency from Tafel",[2]; [9],84%
same,Icorr (corrosion current density),[2]; [9],4.06 μA/cm^2
same,corrosion inhibitor efficiency compared with other additives,[2]; 3.5% NaCl,the most efficient corrosion inhibitor
same,formation of white rust on the steel working electrode,[2],visibly reduced the formation of white rust
magnesium thiodipropionate [MgTDPA5:1],"η, inhibitor efficiency from EIS",[1],72%
same,solubility in the electrolyte,"[4]; 3.5% NaCl electrolyte, yielded a suspension",only fractionally soluble
same,Corrosion rate,[2]; [13],50.7 mpy
same,Icorr (corrosion current density),[2]; [13],85.1 μA/cm^2
same,Corrosion rate,[2]; [9],4.65 mpy
same,"IE, inhibitor efficiency from Tafel",[2]; [9],69%
same,Icorr (corrosion current density),[2]; [9],7.82 μA/cm^2
same,corrosion inhibitor efficiency compared with other additives,[2]; 3.5% NaCl,quite effective in reducing the corrosion rate
"CC(=O)[O-].CC(=O)[O-].O.O.O.O.[Mg+2] [MgAc2, magnesium acetate tetrahydrate, reference compound]","η, inhibitor efficiency from EIS",[1],41%
same,Corrosion rate,[2]; [14],37.0 mpy
same,Icorr (corrosion current density),[2]; [14],62.1 μA/cm^2
same,Corrosion rate,[2]; [9],8.03 mpy
same,"IE, inhibitor efficiency from Tafel",[2]; [9],48%
same,Icorr (corrosion current density),[2]; [9],13.5 μA/cm^2
CCCCCCCCCC(=O)O [decanoic acid],inhibition efficiency η,[5],83.5%
"O=C(O)CCSCCC(=O)O [TDPA, 3,3′-thiodipropionic acid, reference compound]","η, inhibitor efficiency from EIS",[1],81%
same,solubility in solvents,[6],"soluble in water, acetone, and alcohol"
same,pKa,[7],4.11
same,Corrosion rate,[2]; [15],474 mpy
same,Icorr (corrosion current density),[2]; [15],796 μA/cm^2
same,Corrosion rate,[2]; [16],26.5 mpy
same,Icorr (corrosion current density),[2]; [16],44.5 μA/cm^2
same,Corrosion rate,[2]; [17],16.9 mpy
same,Icorr (corrosion current density),[2]; [17],28.4 μA/cm^2
same,Corrosion rate,[2]; [9],2.47 mpy
same,"IE, inhibitor efficiency from Tafel",[2]; [9],84%
same,Icorr (corrosion current density),[2]; [9],4.15 μA/cm^2
same,formation of white rust on the steel working electrode,[2],visibly reduced the formation of white rust
